Entries after “also recorded” stand apart in the source; their conditions may differ.
Assays:
[1] = system: oral mucositis induced in hamsters by acute radiation (40 Gy to left buccal cheek pouch); assay: ACT-02 (Example 1): acute radiation model of oral mucositis in hamsters, mucositis scoring; format: in vivo, Syrian Golden Hamsters; parameters: peak mucositis score (mean daily score): scale not given here
Source text: The objective of this study is to evaluate the effect of M40403, administered by either ip or topical routes, with 2 different schedules, on the frequency, severity and duration of oral mucositis induced in hamsters by acute radiation.
The acute radiation model in hamsters, developed by the Principal Investigator, has proven to be an accurate, efficient and cost-effective technique to provide a preliminary evaluation of anti-mucositis compounds (9). The course of mucositis in this model is well defined and results in peak scores approximately 14-16 Days following radiation. The acute model has little systemic toxicity, resulting in few hamster deaths, thus permitting the use of smaller groups (N=7-8) for initial efficacy studies. It has also been used to study specific mechanistic elements in the pathogenesis of mucositis. Molecules that show efficacy in the acute radiation model may be further evaluated in the more complex models of fractionated radiation, chemotherapy, or concomitant therapy.
In this study, an acute radiation dose of 40 Gy on day 0 was administered locally to the cheek pouch. Clinically significant mucositis was observed on days 12 through 28.
Forty-eight male Syrian Golden Hamsters were divided randomly into 6 groups of 8 animals and given an acute radiation dose of 40 Gy directed to their left buccal cheek pouch. This was accomplished by anesthetizing the animals and everting the left buccal pouch, while protecting the rest of the animal with a lead shield. Test materials were given topically or by ip injection twice daily as detailed in Table 1. Mucositis was evaluated clinically starting on Day 6, and continued on alternate days until day 28.
The grade of mucositis was scored, beginning on day 6, and for every second day thereafter, through and including day 28 (for scoring scheme, see Table 2 and FIG. 2). The effect on mucositis of each drug treatment compared to ip vehicle-treated controls was assessed according to the following parameters:
The difference in the number of days hamsters in each group have ulcerative (score≧3) mucositis.
On each evaluation day, the number of animals with a blinded mucositis score of ≧3 in each drug treatment group was compared to the vehicle-treated control group. Differences were compared on a cumulative basis and statistical significance was determined by chi-square analysis. Efficacy, in this analysis, is defined as a significant reduction in the number of days that a group of animals had ulcerations (scores ≧3) when compared to the control group.
For each evaluation day the scores of the control group were compared to those of the treated groups using non-parametric rank sum analysis. Treatment success was considered as a statistically significant lowering of scores in the treated group on 2 or more days from day 6 to day 28.
All forty-eight (48) male Syrian Golden Hamsters were given an acute radiation dose of 40 Gy directed to their left buccal cheek pouch. This was accomplished by anesthetizing the animals and everting the left buccal pouch, while protecting the rest of the animal with a lead shield. Test materials were given either topically or by ip injection twice daily as detailed in Table 1. Mucositis was evaluated clinically starting on day 6, and continuing on alternate days until day 28. The study timeline is depicted in FIG. 1. Dose levels were determined based on the results of a previous acute toxicity study (data not shown), and the levels shown in Table 1.
Mucositis was induced using a standardized acute radiation protocol. A single dose of radiation (40 Gy/dose) was administered to all animals on day 0. Radiation was generated with a 250 kilovolt potential (15-ma) source at a focal distance of 50 cm, hardened with a 0.35 mm Cu filtration system. Irradiation targeted the left buccal pouch mucosa at a rate of 3.2 Gy/minute. Prior to irradiation, animals were anesthetized with an intra-peritoneal injection of Ketamine (160 mg/kg) and Xylazine (8 mg/kg). […]

[2] = system: animal model of rheumatoid arthritis; settings: rat, in vivo; cited from earlier work
[3] = group 2: ip 3 mg/kg bid day −1 to 15
[4] = group 3: ip 30 mg/kg bid day −1 to 15
[5] = group 4: top 3 mg/ml bid, 0.2 ml per dose, day −1 to 15
[6] = group 5: top 30 mg/ml bid, 0.2 ml per dose, day −1 to 15
[7] = group 6: ip 30 mg/kg bid day −1 to 3

[Cl-].[Cl-].[Mn+2].c1cc2nc(c1)CN[C@@H]1CCCC[C@H]1NCCN[C@@H]1CCCC[C@H]1NC2 [M40403]
Chi Sq v control, days with mucositis score >=3 [1, 3]: 0.3440
Days <3 (animal days with a mucositis score below 3) [1, 3]: 126
Days >=3 (animal days with a mucositis score of 3 or more) [1, 3]: 66
day of peak mucositis score [1, 3]: 18 days
peak mucositis score (mean daily score) [1, 3]: 2.8
progression of mucositis severity compared with control group [1, 3]: very similar to that observed in the control group
Chi Sq v control, days with mucositis score >=3 [1, 4]: 0.9890
Days <3 (animal days with a mucositis score below 3) [1, 4]: 96
Days >=3 (animal days with a mucositis score of 3 or more) [1, 4]: 56
day of peak mucositis score [1, 4]: 18 days
peak mucositis score (mean daily score) [1, 4]: 3.0
progression of mucositis severity compared with control group [1, 4]: indistinguishable from that observed in groups 1 and 2
progression of mucositis severity compared with control group ([1]; group 4: top 3 mg/ml bid day −1 to 15): closely paralleled those in the control group
Chi Sq v control, days with mucositis score >=3 [1, 5]: 1.6760
Days <3 (animal days with a mucositis score below 3) [1, 5]: 119
Days >=3 (animal days with a mucositis score of 3 or more) [1, 5]: 73
progression of mucositis severity compared with control group ([1]; group 5: top 30 mg/ml bid day −1 to 15): showed a reduction of mucositis severity on day 10; also recorded: only slightly less than those in the control group
Chi Sq v control, days with mucositis score >=3 [1, 6]: 0.136
Days <3 (animal days with a mucositis score below 3) [1, 6]: 128
Days >=3 (animal days with a mucositis score of 3 or more) [1, 6]: 64
Chi Sq v control, days with mucositis score >=3 [1, 7]: 7.83
Days <3 (animal days with a mucositis score below 3) [1, 7]: 120
Days >=3 (animal days with a mucositis score of 3 or more) [1, 7]: 24
day of peak mucositis score [1, 7]: 14 days
peak mucositis score (mean daily score) [1, 7]: 3.0
progression of mucositis severity compared with control group ([1]; group 6: ip 30 mg/kg bid day −1 to 3, from day 16 to day 28): decreased much more rapidly than the control group
effect of topical dosing on weight and mucositis severity ([1]; topical dosing, 3 or 30 mg/ml bid day −1 to 15, formulation used here): did not appear to have any effect on either weight or mucositis severity
efficacy in an animal model of rheumatoid arthritis [2]: effective
